Legend:
Conditions in all cases: incubation time: 72 h
BT-474 [1] = assay: normalised viability (% of control), CellTiter-Blue; higher = more viable cells (about 100 = DMSO control)
Procedure, shortened: (§1)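 Breast cancer cell lines were treated for 72 h in 384-well format and measured by CellTiter-Blue fluorescence at 560/590 nm. Results were normalised per plate to vehicle (100) and a positive kill control (0). The entry is normalised viability at a single listed concentration of the series.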

BT-549 [2] = assay: as above
Procedure, shortened: as §1

CAL-148 [3] = assay: as above
Procedure, shortened: as §1

CAL-51 [4] = assay: as above
Procedure, shortened: as §1

CAL-85-1 [5] = assay: as above
Procedure, shortened: as §1

DU-4475 [6] = assay: as above
Procedure, shortened: as §1

HCC1937 = assay: as above
Procedure, shortened: as §1

HDQ-P1 [7] = assay: as above
Procedure, shortened: as §1

Hs578T = assay: as above
Procedure, shortened: as §1

MFM-223 = assay: as above
Procedure, shortened: as §1

BT-474 [8] = assay: drug sensitivity score (DSS), CellTox Green (DSS (AUC-based score)); higher = stronger drug effect (viability inhibition or cytotoxicity); extreme values may be limits of the assay
Procedure, shortened: (§2)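 The drug sensitivity score was computed from the area under the fitted dose-response curve. Breast cancer cell lines in 20 µl suspension went into 384-well plates holding compound at 5 concentrations (10-fold steps over a 10,000-fold, compound-specific range) for 72 h of incubation. CellTox Green fluorescence (485/520 nm) was read before CellTiter-Glo luminescence, the latter after 10 min at room temperature, and each plate was normalised to 0.1 % DMSO and a positive kill control.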

BT-549 [9] = assay: as above
Procedure, shortened: as §2

CAL-120 = assay: as above
Procedure, shortened: as §2

CAL-148 [10] = assay: as above
Procedure, shortened: as §2

CAL-51 [11] = assay: as above
Procedure, shortened: as §2

CAL-85-1 [12] = assay: as above
Procedure, shortened: as §2

DU-4475 [13] = assay: as above
Procedure, shortened: as §2

HCC1143 = assay: as above
Procedure, shortened: as §2

HCC1599 = assay: as above
Procedure, shortened: as §2

HDQ-P1 [14] = assay: as above
Procedure, shortened: as §2

MDA-MB-231 = assay: as above
Procedure, shortened: as §2

MDA-MB-436 = assay: as above
Procedure, shortened: as §2

MDA-MB-453 = assay: as above
Procedure, shortened: as §2

MDA-MB-468 = assay: as above
Procedure, shortened: as §2

C1CN1c1nc(N2CC2)nc(N2CC2)n1 [Triethylenemelamine]
normalised viability [%]
Conditions	BT-474 [1]	BT-549 [2]	CAL-51 [4]	CAL-85-1 [5]	CAL-148 [3]	DU-4475 [6]	HCC1937	HDQ-P1 [7]	Hs578T	MFM-223
3 nM	–	–	108	104	101	102	–	110	–	–
10 nM	111	105	–	–	–	–	86.2	–	145	99.4
30 nM	–	–	106	87.6	105	102	–	94.3	–	–
100 nM	–	–	97.4	108	101	102	–	118	–	–
1000 nM	126	90.9	–	–	–	–	72	–	117	98.3
10000 nM	130	66.7	–	–	–	–	75.3	–	110	64.8

CC[C@H](Nc1ncnc2[nH]cnc12)c1nc2cccc(F)c2c(=O)n1-c1ccccc1 [CAL-101]
normalised viability [%]
Conditions	BT-474 [1]	BT-549 [2]	CAL-51 [4]	CAL-85-1 [5]	CAL-148 [3]	DU-4475 [6]	HCC1937	HDQ-P1 [7]	Hs578T	MFM-223
3 nM	–	–	93	88.6	91.9	105	–	90	–	–
10 nM	108	100	–	–	–	–	106	–	116	90.3
30 nM	–	–	92	75.9	92.1	83.2	–	101	–	–
100 nM	–	–	98	78	88.5	86.2	–	102	–	–
1000 nM	109	96.6	–	–	–	–	94.5	–	112	89.9
10000 nM	90.9	71.8	–	–	–	–	92.4	–	86.8	79.9

O=C(/C=C/c1cccnc1)NCCCCC1CCN(C(=O)c2ccccc2)CC1 [FK-866]
normalised viability [%]
Conditions	BT-474 [1]	BT-549 [2]	CAL-51 [4]	CAL-85-1 [5]	CAL-148 [3]	DU-4475 [6]	HCC1937	HDQ-P1 [7]	Hs578T	MFM-223
0.3 nM	–	–	113	103	96.4	104	–	109	–	–
1 nM	112	95	–	–	–	–	93.3	–	99.9	108
3 nM	–	–	95.5	97.7	94.5	77.2	–	112	–	–
10 nM	–	–	72.8	91.6	91.4	86	–	98	–	–
100 nM	56.8	10.9	–	–	–	–	64.2	–	15	21.2
1000 nM	58.2	10.7	–	–	–	–	42.5	–	15.9	20.1

C=CC(=O)N1CCC[C@@H](n2nc(-c3ccc(Oc4ccccc4)cc3)c3c(N)ncnc32)C1
normalised viability [%]
Conditions	BT-474 [1]	BT-549 [2]	CAL-51 [4]	CAL-85-1 [5]	CAL-148 [3]	DU-4475 [6]	HCC1937	HDQ-P1 [7]	Hs578T	MFM-223
0.3 nM	–	–	95.9	87.8	85.8	91.8	–	130	–	–
1 nM	124	96.6	–	–	–	–	94.8	–	123	92.1
3 nM	–	–	91	84.6	98.6	87.4	–	106	–	–
10 nM	–	–	94.3	96.9	96.3	86.8	–	105	–	–
100 nM	45.9	109	–	–	–	–	101	–	123	83
1000 nM	42.1	118	–	–	–	–	89.7	–	112	56.6

CCN(CC)CCCC(C)Nc1c2ccc(Cl)cc2nc2ccc(OC)cc12 (stereo unspecified) [Mepacrine]
normalised viability [%]
Conditions	BT-474 [1]	BT-549 [2]	CAL-51 [4]	CAL-85-1 [5]	CAL-148 [3]	DU-4475 [6]	HCC1937	HDQ-P1 [7]	Hs578T	MFM-223
0.297 nM	–	–	89.1	114	118	112	–	113	–	–
0.99 nM	113	87	–	–	–	–	118	–	111	107
2.97 nM	–	–	91.4	95.7	110	88	–	109	–	–
3 nM	–	–	105	94.3	98.7	92.6	–	112	–	–
9.9 nM	–	–	96.2	98.9	129	101	–	104	–	–
10 nM	111	87.2	–	–	–	–	108	–	107	101
30 nM	–	–	97.8	88.1	106	89.1	–	113	–	–
99 nM	104	82.2	–	–	–	–	78.7	–	118	94.8
100 nM	–	–	93.3	105	102	96.9	–	116	–	–
990 nM	41.1	37.6	–	–	–	–	15.8	–	38.5	44.5
1000 nM	116	88.9	–	–	–	–	63.6	–	122	100
10000 nM	2.65	17.8	–	–	–	–	10.7	–	21.6	20.9

Conditions	drug sensitivity score
BT-474 [8]	0
BT-549 [9]	0
CAL-51 [11]	0
CAL-85-1 [12]	0
CAL-120	0
CAL-148 [10]	0
DU-4475 [13]	0
HCC1143	0
HCC1599	0
HDQ-P1 [14]	0
MDA-MB-231	5
MDA-MB-436	0
MDA-MB-453	0
MDA-MB-468	0.235

CC(=O)Nc1cccc(-n2c(=O)n(C3CC3)c(=O)c3c(Nc4ccc(I)cc4F)n(C)c(=O)c(C)c32)c1
normalised viability [%]
Conditions	BT-474 [1]	BT-549 [2]	CAL-51 [4]	CAL-85-1 [5]	CAL-148 [3]	DU-4475 [6]	HCC1937	HDQ-P1 [7]	Hs578T	MFM-223
0.075 nM	–	–	103	102	107	117	–	112	–	–
0.25 nM	118	87.6	–	–	–	–	132	–	129	98.8
0.75 nM	–	–	89.4	93.6	96.2	59.7	–	98.3	–	–
2.5 nM	–	–	84.4	97	96.6	10.8	–	99.3	–	–
25 nM	111	92.3	–	–	–	–	112	–	84.8	84.5
250 nM	122	86.2	–	–	–	–	89.2	–	83	64.4

Cc1cnc(NC(=O)Nc2cc(Br)c(C)cc2OC[C@@H]2CNCCO2)cn1
normalised viability [%]
Conditions	BT-474 [1]	BT-549 [2]	CAL-51 [4]	CAL-85-1 [5]	CAL-148 [3]	DU-4475 [6]	HCC1937	HDQ-P1 [7]	Hs578T	MFM-223
0.3 nM	–	–	97.8	90.6	99.2	116	–	104	–	–
1 nM	102	90.9	–	–	–	–	108	–	92.6	104
3 nM	–	–	85.7	89.4	90	94.6	–	88.4	–	–
10 nM	–	–	93.1	106	96.3	106	–	68.7	–	–
100 nM	107	96	–	–	–	–	80.7	–	102	98.8
1000 nM	107	92	–	–	–	–	50.6	–	35	79.5

CCc1cncnc1N1CCN(Cc2nc3ccc(C(F)(F)F)cc3[nH]2)CC1
normalised viability [%]
Conditions	BT-474 [1]	BT-549 [2]	CAL-51 [4]	CAL-85-1 [5]	CAL-148 [3]	DU-4475 [6]	HCC1937	HDQ-P1 [7]	Hs578T	MFM-223
3 nM	–	–	94.3	102	119	103	–	116	–	–
10 nM	115	78.4	–	–	–	–	108	–	95.4	103
30 nM	–	–	90	97.4	95.8	91.6	–	108	–	–
100 nM	–	–	91.5	101	114	107	–	108	–	–
1000 nM	118	102	–	–	–	–	107	–	122	122
10000 nM	83.7	59.9	–	–	–	–	86.8	–	88.8	82.7

Conditions	drug sensitivity score
BT-474 [8]	0
BT-549 [9]	0
CAL-51 [11]	0
CAL-85-1 [12]	0
CAL-120	0
CAL-148 [10]	0
DU-4475 [13]	0
HCC1143	0
HCC1599	0
HDQ-P1 [14]	0
MDA-MB-231	0
MDA-MB-436	0
MDA-MB-453	0
MDA-MB-468	0

COc1cc2c(NC3CCN(C(C)C)CC3)nc(C3CCCCC3)nc2cc1OCCCN1CCCC1 [UNC0638]
Conditions	drug sensitivity score
BT-474 [8]	7.51
BT-549 [9]	8.31
CAL-51 [11]	9.03
CAL-85-1 [12]	6.93
CAL-120	6.94
CAL-148 [10]	6.35
DU-4475 [13]	0
HCC1143	0
HCC1599	1.89
HDQ-P1 [14]	1.42
MDA-MB-231	9.02
MDA-MB-436	4.24
MDA-MB-453	6.8
MDA-MB-468	7.09

NCCCNCCSP(=O)(O)O [Amifostine]
normalised viability [%]
Conditions	BT-474 [1]	BT-549 [2]	CAL-51 [4]	CAL-85-1 [5]	CAL-148 [3]	DU-4475 [6]	HCC1937	HDQ-P1 [7]	Hs578T	MFM-223
3 nM	–	–	113	97.5	97.6	85.9	–	101	–	–
10 nM	94.2	81.4	–	–	–	–	79.2	–	101	81.8
30 nM	–	–	106	88	93.9	93.9	–	95.5	–	–
100 nM	–	–	107	87.2	96.5	86.4	–	84.8	–	–
1000 nM	94.5	96.6	–	–	–	–	95	–	104	82.1
10000 nM	111	93.3	–	–	–	–	89.5	–	95.6	96.4

Cc1ccc(-c2cc(C(F)(F)F)nn2-c2ccc(S(N)(=O)=O)cc2)cc1 [Celecoxib]
normalised viability [%]
Conditions	BT-474 [1]	BT-549 [2]	CAL-51 [4]	CAL-85-1 [5]	CAL-148 [3]	DU-4475 [6]	HCC1937	HDQ-P1 [7]	Hs578T	MFM-223
3 nM	–	–	99	91.6	86.8	83.8	–	104	–	–
10 nM	111	86.6	–	–	–	–	85.3	–	113	95.9
30 nM	–	–	98.3	75	97	93.1	–	93.5	–	–
100 nM	–	–	94.4	76.7	91.2	106	–	85	–	–
1000 nM	97.3	106	–	–	–	–	80.3	–	108	92.1
10000 nM	105	78.4	–	–	–	–	79.4	–	92.6	86.3

Conditions	drug sensitivity score
BT-474 [8]	0
BT-549 [9]	0
CAL-51 [11]	0
CAL-85-1 [12]	0
CAL-120	0
CAL-148 [10]	0
DU-4475 [13]	0
HCC1143	0
HCC1599	0
HDQ-P1 [14]	0
MDA-MB-231	0
MDA-MB-436	0
MDA-MB-453	0
MDA-MB-468	0
